Reference: ChEMBL document CHEMBL1155602, “Three new scalarane sesterterpenoids from the Okinawan sponge Hyrtios erectus” (J Nat Prod, 2000)
Values after ≈ are worked out from the molar mass of the structure shown.

Tested on: KB
Assay: Antiproliferative activity against human KB cells
Format: functional, cell-based

SMILES: CC1(C)CCC[C@]2(C)[C@H]3C[C@@H](O)[C@]4(C)C=C(C=O)CC[C@H]4[C@]3(C)CC[C@@H]12
- IC50: 2.82 µg/mL (≈ 7.86 µM)
